The structures appear in SMILES notation. Structures can show the parent of a compound that is named as a salt.

In data set [1] the test system is PAR. Put plainly: trypsin-induced contraction of rat-isolated bladder strips, naive animals. The conditions noted are these: for effect on trypsin-induced bladder contraction at the other concentrations: other concentrations tested; for amplitude of bladder contraction: trypsin 3000 BAEE U/mL; for reduction in bladder contraction: trypsin. The source says: (§1) Purpose of the experiment: Evaluate the role of 3-(2-Chloro-phenyl)-1-[4-(4-fluoro-benzyl)-piperazin-1-yl]-propenone on the amplitude of bladder contraction induced by trypsin and TFLLR. The experiment was led in parallel on naïve bladders and on bladders subjected to inflammation procedure. The effect of the compound of the invention was compared with that of a reference PAR1 antagonist: compound SCH203099, (Ahn et al. Biochem. Pharmacol. 60(10:1425-1434, 2000).
(§2) In naïve rats (no administration of cyclophosphamide) or 24 hours after administration of cyclophosphamide, the animals were anaesthetised with pentobarbital (60 mg/kg) and euthanized. The bladder was rapidly taken and placed in modified Krebs-Henseleit oxygenated solution having the following composition (mM): NaCl 114; KCl 4.7; CaCl2 2.5; MgSO4 1.2; KH2PO4 1.2; NaHCO3 25 and glucose 11.7 (pH 7.4 with 95% O2 and 5% CO2). The bladder was cleaned of conjunctive tissue, weighed, the distal and proximal portions removed and the bladder cut in longitudinal direction into two equal strips. These strips were attached with silk thread and immersed in a 10 mL isolated organ bath (EMKA Technologies) containing the Krebs-Henseleit oxygenated solution with 95%:5% mixture of O2/CO2 held at 37° C. The bladder strips were connected via the silk thread to isometric sensors (IT50 model, EMKA Technologies) connected to amplifiers (EMKA Technologies). Contractile responses were recorded using IOX2® software (EMKA Technologies).
(§3) For an initial stabilisation period of at least 90 minutes, rinsing operations were carried out every 15 minutes and the tensioning of each bladder strip readjusted to 1.0 g. The strips were then exposed to 50 mM KCl to verify their viability. If the contraction amplitude of the strips was less than 1.0 g, the tissues were discarded and not included in the experiment. After a second stabilisation and washing period of at least 45 minutes, a concentration of the compound of the invention or of the reference product (SCH203099) or of the vehicle was incubated for 30 minutes. A concentration-accumulative response curve to the selective agonist PAR1, to TFLLR (0.1 μM to 0.1 mM) or to trypsin (10 U to 10,000 BAEE U/mL) was plotted.
(§4) These experiments were conducted on naive bladders. The protocol followed was the same as the protocol described in Example 1.

For data set [2], the system named is PAR. In words: trypsin-induced contraction of rat-isolated bladder strips, inflammation conditions (cyclophosphamide). Conditions: for amplitude of bladder contraction / reduction in bladder contraction: inflamed rat bladder; for amplitude of bladder contraction: trypsin 3000 BAEE U/mL; for reduction in bladder contraction: trypsin.
Description: as §1
(§5) To induce inflammation of the bladder, cyclophosphamide was bilaterally injected into the rats (Female Wistar Han rats weighing 250 to 275 g on the day of the experiment, obtained from Charles River laboratory, France) via intraperitoneal route at a dose of 150 mg/kg in a final volume of 5 mL/kg.
as §2, §3

Data set [3] has as its target T1, PAR1 (Rattus norvegicus, UniProt P26824).
T1 construct: the bladder cut in longitudinal direction into two equal strips; from tissue; host or cells: isolated bladder strips of female Wistar Han rats (naive or 24 h after cyclophosphamide)
T1 sequence (P26824 22-432): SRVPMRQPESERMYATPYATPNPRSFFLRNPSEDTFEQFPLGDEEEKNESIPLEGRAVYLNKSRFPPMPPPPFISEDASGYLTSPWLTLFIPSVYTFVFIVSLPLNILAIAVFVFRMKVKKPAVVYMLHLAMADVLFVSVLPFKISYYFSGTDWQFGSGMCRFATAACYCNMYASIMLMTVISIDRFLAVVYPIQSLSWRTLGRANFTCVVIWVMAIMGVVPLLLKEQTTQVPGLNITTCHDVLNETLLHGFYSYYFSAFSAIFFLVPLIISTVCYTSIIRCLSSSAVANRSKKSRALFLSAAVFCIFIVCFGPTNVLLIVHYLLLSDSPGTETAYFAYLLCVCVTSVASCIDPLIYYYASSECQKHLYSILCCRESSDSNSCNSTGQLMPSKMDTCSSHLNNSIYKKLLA
In words: TFLLR-induced contraction of rat-isolated bladder strips, naive animals.
Description: as §1, §2, §3, §4

The target of data set [4] is T1, PAR1. Put plainly: TFLLR-induced contraction of rat-isolated bladder strips, inflammation conditions (cyclophosphamide). Conditions: inflamed rat bladder, 100 μM TFLLR.
Description: as §1, §5, §2, §3

Data set [5] in a line: solubility of the compound in the organ bath experiment. The format is physicochemical. The conditions noted are these: noted at 10 μM and 30 μM in organ bath.

Take `CNc1nc(NC2CC2)nc2ccc3c(ccn3Cc3ccc(C(C)C)cc3)c12` [SCH203099]: the “effect on trypsin-induced bladder contraction versus vehicle” value in the data set with PAR [1] (compound 10 μM) was “divided by two”. Also, the “effect on trypsin-induced bladder contraction at the other concentrations” value with PAR [1] is “nothing was observed”. In addition, the “amplitude of bladder contraction” value in the data set with PAR [1] (compound 10 μM) was found to be 0.48 ± 0.11 g; in the data set with PAR [2] (compound 3 μM), 2.05 ± 0.53 g; in the data set on PAR [2] (compound 10 μM), 1.77 ± 0.38 g; with PAR [2] (compound 30 μM) it was 1.04 ± 0.16 g; on PAR1 [3] (100 μM TFLLR, compound 10 μM) it was 0.26 ± 0.07 g; on PAR1 [4] (compound 10 μM) it was 0.73 ± 0.10 g. For the same compound, the “amplitude of bladder contraction” value on PAR1 [4] (compound 30 μM) was determined as 0.49 ± 0.08 g. Besides, the “reduction in bladder contraction” value in the data set on PAR [2] (compound 3 μM) came out at 25%; in the data set on PAR [2] (compound 10 μM) it was 35%; in the data set on PAR [2] (compound 30 μM) it was 60%; at PAR1 [4] (compound 3 μM (no conclusive effect)), 10%; on PAR1 [4] (compound 10 μM), 35%. In addition, the “effect on TFLLR-induced bladder contraction versus vehicle” value on PAR1 [3] (compound 10 μM) was “divided by two”. Also, at PAR1 [3] (other concentrations tested), the “effect on TFLLR-induced bladder contraction at the other concentrations” value is “nothing was observed”. The “reduction in bladder contraction / contractile response” value at PAR1 [4] (compound 30 μM) came to 55%.

In the case of `CCOc1cc2c(c(F)c1OCC)C(=N)N(CC(=O)c1cc(N3CCOCC3)c(OC)c(C(C)(C)C)c1)C2` [atopaxar, [(1-(3-tert-butyl-4-methoxy-5-morpholinophenyl)-2-(5,6-diethoxy-fluoro-1-imino-1,3-dihydro-2H-isoindol-2yl)ethanone hydrobromide], the “effect on trypsin-induced bladder contraction versus vehicle” value with PAR [1] (compound 1 μM) is recorded as “slight reduction”; with PAR [1] (compound 30 μM), “completely abolishes”. In addition, the “amplitude of bladder contraction” value with PAR [1] (compound 1 μM) came out at 1.02 ± 0.20 g; with PAR [1] (compound 3 μM) it was 0.74 ± 0.19 g; in the data set on PAR [1] (compound 10 μM) it was 0.36 ± 0.15 g; at PAR1 [3] (100 μM TFLLR, compound 10 nM), 0.21 ± 0.03 g; on PAR1 [3] (100 μM TFLLR, compound 1 μM), 0.08 ± 0.03 g. The “reduction in bladder contraction” value was 38% with PAR [1] (compound 3 μM); 70% with PAR [1] (compound 10 μM); “more than 50%” at PAR1 [3] (100 μM TFLLR, compound 10 nM). Moreover, the “decrease of bladder contraction” value at PAR1 [3] (100 μM TFLLR, compound 1 μM) is on record as “more than 80%”.

For `O=C(/C=C/c1ccccc1Cl)N1CCN(Cc2ccc(F)cc2)CC1` [compound of the invention, 3-(2-Chloro-phenyl)-1-[4-(4-fluoro-benzyl)-piperazin-1-yl]-propenone], the “effect on trypsin-induced bladder contraction versus vehicle” value with PAR [1] (compound 30 μM) is given as “divided by two”. For the same compound, in the data set on PAR [1], the “effect on trypsin-induced bladder contraction at the other concentrations” value is on record as “nothing was observed”. Moreover, the “amplitude of bladder contraction” value came out at 0.55 ± 0.24 g in the data set with PAR [1] (compound 30 μM); 1.76 ± 0.30 g in the data set on PAR [2] (compound 10 μM); 0.92 ± 0.17 g in the data set on PAR [2] (compound 30 μM); 0.33 ± 0.05 g on PAR1 [3] (100 μM TFLLR, compound 3 μM); 0.18 ± 0.04 g on PAR1 [3] (100 μM TFLLR, compound 10 μM); 0.00 ± 0.04 g at PAR1 [3] (100 μM TFLLR, compound 30 μM). The “amplitude of bladder contraction” value on PAR1 [4] (compound 10 μM) turned out to be 0.45 ± 0.13 g; on PAR1 [4] (compound 30 μM) it was 0.11 ± 0.04 g. The “effect on trypsin-induced bladder contraction” value with PAR [2] (inflamed rat bladder (cyclophosphamide), compound up to 3 μM) was “inactive”. Besides, the “reduction in bladder contraction” value with PAR [2] (compound 10 μM) is given as 35%; in the data set on PAR [2] (compound 30 μM) it was “about 70%”; at PAR1 [3] (100 μM TFLLR, compound 3 μM), 45%; on PAR1 [3] (100 μM TFLLR, compound 10 μM), 70%; on PAR1 [4] (compound 10 μM), 60%; at PAR1 [4] (compound up to 3 μM (no conclusive effect)), 10%. For the same compound, the “effect on TFLLR-induced bladder contraction” value at PAR1 [3] (compound 1 μM) is “inactive”; on PAR1 [3] (compound 30 μM), “completely abolished”. Moreover, the “reduction in bladder contraction / contractile response” value on PAR1 [4] (compound 30 μM) came out at 90%.

As to `CCOC(=O)N[C@@H]1CC[C@@H]2[C@@H](C1)C[C@H]1C(=O)O[C@H](C)[C@H]1[C@H]2/C=C/c1ccc(-c2cccc(F)c2)cn1` [vorapaxar, ethyl N-[(3R,3aS,4S,4aR,7R,8aR,9aR)-4-[(E)-2-[5-(3-fluorophenyl)-2-pyridyl]vinyl]-3-methyl-1-oxo-3a,4,4a,5,6,7,8,8a,9,9a-decahydro-3H-benzo[f]isobenzofuran-7-yl]carbamate], the “effect on trypsin-induced bladder contraction versus vehicle” value with PAR [1] (compound 10 μM) is “lesser efficacy”. Also, the “amplitude of bladder contraction” value with PAR [1] (compound 3 μM) was 0.79 ± 0.14 g; on PAR1 [3] (100 μM TFLLR, compound 3 nM), 0.31 ± 0.12 g; at PAR1 [3] (100 μM TFLLR, compound 10 nM), 0.14 ± 0.02 g; at PAR1 [3] (100 μM TFLLR, compound 1 μM) it was 0.04 ± 0.03 g. In addition, the “reduction in bladder contraction” value at PAR1 [3] (100 μM TFLLR, compound 3 nM) is listed as about 50%; on PAR1 [3] (100 μM TFLLR, compound 10 nM), 75%. The “effect on TFLLR-induced bladder contraction” value on PAR1 [3] (compound from 1 μM) is “completely abolishes”. Besides, the “solubility” value in data set [5] was “low solubility”.
